Results published in US10407388B2, “Thiourea derivatives as activators of RORα and pharmaceutical composition containing same” (SEOUL NATIONAL UNIVERSITY R & DB FOUNDATION, priority 2011, dated 2019).

Assays:
CPT-1 = assay: Fatty acid oxidation gene CPT-1 in HepG2 cells, real-time RT-PCR; assay type: cell-based, human; conditions: 100 μM, 24 hours; FIG. 8
Description: HepG2 cells (1×10^6 cells/well) were seeded on a 60-dish and cultured overnight in a DMEM containing 10% FBS. The HepG2 cells were maintained at 37° C. in a humidification thermostat containing 5% CO2 and 95% air. After culturing, the HepG2 cells were treated with JC1-38, JC1-40, and JC1-42 at a concentration of 100 μM for 24 hours. After treatment, effects thereof on transcriptional activity were analyzed by real-time reverse transcriptase-polymerase chain reaction (real-time RT-PCR) analysis. The PCR was performed using the following primers respectively specific to MCAD, ACO1, ACO2, HMGCS2, CPT-1, and ACS, which are involved in fatty acid oxidation: […]

SREBP-1 = assay: Transcriptional activity of SREBP-1, SRE-Luc reporter in HepG2 cells treated with T17; assay type: cell-based, human; conditions: 50 μM with 1 μM T17, 24 hours; FIG. 5b
Description: In addition, HepG2 cells were cultured under the same conditions, and then the HepG2 cells were transformed with SRE-Luc reporter (0.1 μg) using Welfect-EXTM Plus (WelGENE Inc., Korea). 24 hours after transformation, the HepG2 cells were treated with each of the JC1-38, JC1-40, and JC1-42 compounds at a concentration of 50 μM and 1 μM T17 (T0901317) for 24 hours. Subsequently, cell lysates were collected, and luciferase activity was analyzed and determined using an analytical luminescence luminometer. The luciferase activity was standardized by β-gal activity to determine transcriptional efficiency, and data was attained as the mean and SD for three independent experimental results, and the results thereof are illustrated in FIG. 5b.

A7r5 = assay: Proliferation of vascular smooth muscle cells, MTT; assay type: cell-based, rat; conditions: 100 μM for 2 days, 4 days, or 6 days, FIG. 14
Description: A7r5, which is a rat smooth muscle cell line, was purchased from ATCC. A7r5 was cultured in 5% CO2 using a DMEM supplemented with 10% FBS, penicillin (100 U/ml), and streptomycin (100 μg/ml) prior to use in an experiment. A7r5 cells (2×10^3 cells/well) were seeded on a 96-well culture plate and cultured overnight. After culturing, the A7r5 cells were treated with each of the JC1-40 and JC1-42 compounds at a concentration of 100 μM for 2 days, 4 days, or 6 days. Subsequently, the A7r5 cells were treated with MTT (3-4,5-dimethylthiazol-2-yl)-2,5-diphenyl-tetrazolium bromide) (2 mg/ml, 50 μl) for 4 hours, and then the medium was removed and 200 μl of DMSO was added to the plate. The contents in the plate were mixed for 5 minutes, and then absorbance was measured at 595 nm. Data was attained as the mean and SD for the three independent experimental results, and the results thereof are illustrated in FIG. 14.

FAS = assay: Expression of FAS protein in HepG2 cells, western blotting; assay type: cell-based, human; conditions: for expression of FAS, which had been increased by T17: 0, 1, 10, 50, 100 μM with 1 μM T17, 24 hours, FIGS. 6b and 6c; for expression of FAS protein: 100 μM, 24 hours, FIG. 6a
Description: HepG2 cells (1×10^6 cells/well) were seeded on a 60-dish and cultured overnight in a DMEM containing 10% FBS. The HepG2 cells were maintained at 37° C. in a humidification thermostat containing 5% CO2 and 95% air. After culturing, the HepG2 cells were treated with each of the JC1-38, JC1-40, and JC1-42 compounds at a concentration of 100 μM, and, as a positive control, the HepG2 cells were treated with 2 mM metformin, which is an AMPK activator, for 24 hours. After treatment, the expression of proteins was analyzed by western blotting analysis. That is, after treatment, the HepG2 cells were destroyed on ice in a lysis buffer containing 50 mM NaCl, 50 mM Tris pH 7.4, 5 mM EDTA, 1% NP-40, and a protease inhibitor for 30 minutes, and then centrifuged to obtain a total cell lysate. 20 μg to 30 μg of proteins collected from the total cell lysate was subjected to 7% to 9% sodium dodecyl sulfate-polyacrylamide gel electrophoresis (SDS-PAGE), and was transferred to a polyvinylidene difluoride membrane (Millipore, Bedford, Mass., USA). The resulting product was subjected to blocking with 5% or 10% (w/v) nonfat dry milk in PBS containing 0.1% Tween-20, and was reacted with antibodies specific to RORα (Affinity BioReagents), LXRα, SREBP-1, FAS (Santa Cruz Biotechnology), phospho-ACC (Cell signaling), and α-tubulin (Calbiochem). Immunoreactive proteins were detected with Amersham ECL western blotting detection reagents using a horseradish peroxidase (HRP)-conjugated secondary antibody (Zymed Lab). Protein concentrations were quantified by bicinchoninic acid (BCA) (Pierce) analysis, and the expression of α-tubulin was monitored as a control. The results thereof are illustrated in FIG. 6a.
In addition, HepG2 cells were cultured under the same conditions, and then the HepG2 cells were treated with particular concentrations (0 μM, 1 μM, 10 μM, 50 μM, and 100 μM) of JC1-40 (or JC1-42) and 1 μM T17 for 24 hours. After treatment, the expression of proteins was analyzed by western blotting analysis, and the expression of α-tubulin was monitored as a control. The results thereof are illustrated in FIGS. 6b and 6c.

[1] = test system: high-fat diet-induced fatty liver mice model; assay: Blood biochemical analysis in high-fat diet-induced fatty liver mice model; assay type: in vivo; conditions: FIG. 13; for amount of blood triglycerides, which had been increased by the high-fat diet / amount of blood glucose / amount of total blood cholesterol: oral, 10 mg/kg/day or 30 mg/kg/day for 2 days; for amount of blood glucose / amount of total blood cholesterol: versus high-fat diet group
Description: 3 days after the diet was fed, the mice were fed the high-fat diet containing safflower oil while being orally administered JC1-40 and JC142, which had been diluted with 0.5% carboxymethyl cellulose, at a dose of 10 mg/kg/day or 30 mg/kg/day for 2 days. 5 days after the diet was fed, the mice were sacrificed to collect blood, and serum samples were collected therefrom.

[2] = 30 mg/kg/day, compared to the high-fat diet group

| Compound | transcriptional activity of CPT-1 (CPT-1) | transcriptional activity of SREBP-1, which had been increased by T17 (SREBP-1) | proliferation of vascular smooth muscle cells (A7r5) | expression of FAS, which had been increased by T17 (FAS) | expression of FAS protein (FAS) | GOP [1, 2] | GPT [1, 2] | amount of high-density lipoproteins [1, 2] | amount of blood triglycerides, which had been increased by the high-fat diet [1] | amount of blood glucose [1] | amount of total blood cholesterol [1] |
| --- | --- | --- | --- | --- | --- | --- | --- | --- | --- | --- | --- |
| CNC(=S)NCc1ccccc1-c1ccncc1 [Compound 38, 1-methyl-3-(4-pyridinyl-2-benzyl)-thiourea] | increased | decreased |  |  |  |  |  |  |  |  |  |
| CNC(=S)NCc1ccc(OCc2ccccc2)cc1 [Compound 40, 1-(4-benzyloxy-benzyl)-3-methyl-thiourea] | increased | decreased | decreased | decreased in a manner dependent on the concentration | decreased | decreased | decreased | increased | decreased | not different from those in the high-fat diet group | not different from those in the high-fat diet group |
| CNC(=S)NCc1ccc(Oc2ccccc2)cc1 [Compound 42, 1-(4-phenoxy-benzyl)-3-methyl-thiourea] | increased | decreased | decreased | decreased in a manner dependent on the concentration | decreased |  |  | increased | decreased | not different from those in the high-fat diet group | not different from those in the high-fat diet group |
